We go through 1 compound from patent publication US20250250298A1, “ONCOLYTIC PEPTIDE AND USE THEREOF” (Rise Biopharmaceuticals Inc., priority 2022, published 2025).

A word on the IC50: it is the concentration at which inhibition is half-maximal. Low readings indicate greater potency, high ones weaker potency.

Where a SMILES comes first, the peptide text is derived from it.

For series [1], the system named is MN-11 (Murine fibrosarcoma). Put plainly: MTT cytotoxicity, MN-11. The class given is cell-based. Conditions: MN-11, 24 hours incubation. From the text: (§1) The MTT assay is a colorimetric method for measuring the activity of enzymes in living cells that reduces Thiazolyl blue tetrazolium bromide (MTT) to formazan dyes showing a purple color. In this embodiment, a colorimetric 3-(4.5-dimethylthiazol-2-yl)-2.5-diphenyltetrazodium bromide (MTT) viability assay was used to assess the in vitro cytotoxicity of oncolytic peptides.
(§2) The half inhibition concentration (IC50) is the concentration required by the oncolytic peptides to reach fifty percent inhibition. In one embodiment, the oncolytic peptides were used for IC50 test via MTT colorimetric assay.
(§3) Human lung cancer lines PC9 and A549 and murine pancreatic cancer cell line Panc02 were cultured in RPMI medium supplemented with 10% fetal bovine serum and antibiotic in this embodiment. Additionally, murine hepatoma cell line Hepa 1-6, murine melanoma cell line B16-F10, murine fibrosarcoma cell line MN-11, murine mammary cancer cell line E0771 and human diploid fibroblast (HFW) were cultured in DMEM medium supplemented with 10% fetal bovine serum and antibiotic. Cells were cultured in a humidified incubator containing 5% CO2 at 37° C.
(§4) All cancer cell lines were seeded in a 96-well plate with a concentration of 5000-8000 cells/100 μl/well and incubated for 24 hrs. After medium was removed, 100 μl fresh medium containing peptide (ranging from 50 μM to 0.8 μM) was added to the wells. Following 24 hours incubation, fresh medium with MTT (0.5 mg/ml) was replaced and incubated for 3 hours. After medium/MTT was removed, DMSO was added at 100 μl for dissolving the formazan crystal. Cell survival rate was calculated by measuring the absorbance at 540 nm using a Multi-labeled Microplate Reader (Sunrise™, TECAN).

For the next series, the system named is HFW (Human fibroblast). The series can be described thus: MTT cytotoxicity, HFW. Conditions: 24 hours incubation. The class given is cell-based.
Description: as §1, §2, §3, §4

Series [2] relates to NCI-N87 (Human gastric carcinoma). Put plainly: MTT cytotoxicity, NCI-N87. Format: cell-based. Conditions: NCI-N87, 24 hours incubation.
Description: as §1, §2, §4

The subject of series [3] is SAS (Human tongue carcinoma). The series can be described thus: MTT cytotoxicity, SAS. Format: cell-based. Conditions: 24 hours incubation.
Description: as §1, §2, §4

Series [4] has as its system A549 (Human non-small cell lung cancer cell). Put plainly: MTT cytotoxicity, A549. Conditions: A549, 24 hours incubation. Format: cell-based.
Description: as §1, §2, §3, §4

For series [5], the system named is EO771 (Murine mammary adenocarcinoma). Put plainly: MTT cytotoxicity, EO771. To be noted: EO771, 24 hours incubation. Format: cell-based.
Description: as §1, §2, §3, §4

For series [6], the system named is A375 (human malignant melanoma). Put plainly: MTT cytotoxicity, A375. Format: cell-based. Conditions: A375, 24 hours incubation.
Description: as §1, §2, §4

The test system of the next series is E0771 breast cancer. Format: in vivo. Conditions: E0771 tumor-bearing C57BL/6 mice. Here is the method:
FIGS. 7A-7B are schematic diagrams of E0771 breast cancer experiments. FIG. 7A: The right flank of the mouse was administrated with SEQ ID NO:9. […] (2×10^5E0771 cells per mouse/50 μl RPMI-1640). Palpable tumors (75 mm^3) were injected (IT.) with single doses of SEQ ID NO:9 dissolved in PBS (1.0 mg peptide/50 μl PBS) once a day for 5 consecutive days, and the vehicle control was saline only (0.9% NaCl).
Female C57BL/6 mice (4- to 6-week old) as allogeneic model animals were purchased from BioLASCO Taiwan Co., Ltd. and maintained in a specific pathogen-free and controlled environment. During the experiments, female mice, weighing 18.0-24.0 g each, were kept in groups of 4 to 6 animals per cage under climate-controlled conditions, with 12 h light/dark cycles and an ambient temperature. The mice were housed in an enriched individually ventilated cage (IVC) system with free access to standard rodent chow and water ad libitum. The animals were anesthetized during the experimental procedures with 2.5% isoflurane gas. The animals were monitored daily. […]
Tumor size was measured 3 times a week using a caliper, and the volume of tumors was calculated using the following formula: Tumor size (mm^3)=0.5×(width^2×length). […] The survival rates of tumor-bearing mice were observed and recorded continuously until all animals died. […]

Series [7] has as its system PC9 (Human non-small cell lung cancer cell). The series can be described thus: MTT cytotoxicity, PC9. The class given is cell-based. To be noted: PC9, 24 hours incubation.
Description: as §1, §2, §3, §4

Series [8] deals with Hepa I-6 (Murine hepatocellular carcinoma). Put plainly: MTT cytotoxicity, Hepa 1-6. To be noted: Hepa I-6, 24 hours incubation. Format: cell-based.
Description: as §1, §2, §3, §4

Series [9] relates to OECM-1 (Human oral cancer cell). The series can be described thus: MTT cytotoxicity, OECM-1. To be noted: OECM-1, 24 hours incubation. Format: cell-based.
Description: as §1, §2, §4

Series [10] concerns HUVEC (Human Umbilical Vein Endothelial (Cell)). The series can be described thus: MTT cytotoxicity, HUVEC. To be noted: 24 hours incubation. The class given is cell-based.
Description: as §1, §2, §4

Series [11] deals with HCT-15 (Human colorectal cancer). The series can be described thus: MTT cytotoxicity, HCT-15. The class given is cell-based. Conditions: HCT-15, 24 hours incubation.
Description: as §1, §2, §4

The next series deals with Panc02. The series can be described thus: MTT cytotoxicity, Panc02. Format: cell-based, murine. Conditions: Panc02, 24 hours incubation.
Description: as §1, §2, §3, §4

Series [12] can be described thus: Peptide stability in serum. Format: in vitro ADME. Conditions: 25% (vol/vol) bovine calf serum. On the procedure: Since this kind of peptide is highly toxic, the hope is that the peptide can be decomposed after inducing cancer cells to release danger-associated molecular patterns (DAMPs), and will not stay in the body for too long. After exposure to 25% (vol/vol) bovine calf serum, the residues of peptides were analyzed by liquid chromatography, and the stability at different time points was calculated.

For a further series, the system named is RBC (Human blood cell). Put plainly: Cytotoxicity, RBC. The class given is cell-based.
Description: as §2

As to `CC(C)C[C@H](NC(=O)[C@H](Cc1ccc2ccccc2c1)NC(=O)[C@H](CCCCN)NC(=O)[C@H](CC(C)C)NC(=O)[C@H](Cc1c[nH]c2ccccc12)NC(=O)[C@H](CCCCN)NC(=O)[C@H](CCCNC(=N)N)NC(=O)[C@H](Cc1c[nH]c2ccccc12)NC(=O)[C@H](CCCNC(=N)N)NC(=O)[C@H](CCCNC(=N)N)NC(=O)[C@H](CCCCN)NC(=O)[C@H](CCCCN)NC(=O)[C@H](CCCCN)NC(=O)[C@@H](N)CCCCN)C(=O)N[C@@H](C)C(=O)N[C@@H](CCCCN)C(N)=O` [SEQ ID NO: 9, KKKK-RR-WRK-WLK-Nal-LA-K-NH2] (HELM PEPTIDE1{K.K.K.K.R.R.W.R.K.W.L.K.[O=C([C@H](Cc1ccc2ccccc2c1)N[*:1])[*:2]].L.A.K.[am]}$$$$V2.0; N-terminus assumed), the IC50 is 2900 nM in [1]; 3380 nM in the series on HFW (Human fibroblast); 2350 nM in [2]; 6030 nM in [3]; 2790 nM in series [4]; 2010 nM in series [5]. The IC50 in [6] amounted to 3840 nM; in series [7], 3020 nM; in series [8] it was 1690 nM; in series [9], 6360 nM; in series [10] it was 6320 nM; in series [11], 2420 nM. The IC50 was determined as 2660 nM in the series on Panc02 and 25700 nM in the series with RBC (Human blood cell). Also, the “Survival (lifespan)” value with E0771 breast cancer (IT. 1.0 mg once a day for 5 days, vs untreated controls) was “extended the lifespan”. Further, the “Tumor growth, treated tumor (right flank)” value in the series with E0771 breast cancer (IT. 1.0 mg peptide/50 μl PBS once a day for 5 consecutive days, vs saline control) is reported as “significantly inhibited tumor growth”. In [12] (0 hr), the “Serum stability (residual peptide)” value was determined as 100.00%. The remaining at 0.5 h in series [12] (0.5 hr, read-out: Serum stability (residual peptide)) came out at 90.7%. Also, in [12] (1 hr, read-out: Serum stability (residual peptide)), the remaining at 1 h is 76.2%. Further, the remaining at 2 h in [12] (2 hr, read-out: Serum stability (residual peptide)) was found to be 77.9%. The remaining at 4 h in series [12] (4 hr, read-out: Serum stability (residual peptide)) is 70.9%. The remaining at 6 h in [12] (6 hr, read-out: Serum stability (residual peptide)) amounted to 74.2%. Further, the remaining at 8 h in series [12] (8 hr, read-out: Serum stability (residual peptide)) came to 55.8%.
